{
  "source": "ChEMBL document CHEMBL3045778",
  "about": "“Production of bacillomycin- and macrolactin-type antibiotics by Bacillus amyloliquefaciens NJN-6 for suppressing soilborne plant pathogens” (2012)",
  "key": {"Ralstonia solanacearum": {"test_system": "Ralstonia solanacearum", "test": "Antibacterial activity against Ralstonia solanacearum race 1 assessed as growth inhibition at 50 uL at 28 degC for 3 days", "assay_type": "functional"}, "[1]": {"test_system": "Fusarium oxysporum f. sp. cubense", "test": "Antifungal activity against soil-borne Fusarium oxysporum f. sp. cubense race 4 assessed as growth inhibition at 50 uL at 28 degC for 4 days", "assay_type": "functional"}},
  "data": [
    {"smiles": "C[C@@H]1CCC/C=C/C=C/[C@H](O)C[C@@H](O)C/C=C\\C=C\\[C@@H](OC(=O)CC(=O)O)C/C=C/C=C\\C(=O)O1", "note": "[7-O-MALONYL MACROLACTIN A]", "values": [
      {"measurement": "diameter of the inhibition zone (DIZ)", "setting": "Ralstonia solanacearum", "value": 1, "unit": "cm"}
    ]},
    {"smiles": "CCC(C)CCCCCCCCC1CC(=O)N[C@@H](CC(=O)O)C(=O)N[C@H](Cc2ccc(O)cc2)C(=O)N[C@H](CC(N)=O)C(=O)N2CCC[C@H]2C(=O)N[C@@H](CCC(=O)O)C(=O)N[C@H](CO)C(=O)N[C@@H]([C@@H](C)O)C(=O)N1", "note": "(stereo not given in full) [BACILLOMYCIN D(C15)]", "values": [
      {"measurement": "diameter of the inhibition zone (DIZ)", "setting": "[1]", "value": 0.7, "unit": "cm"}
    ]},
    {"smiles": "C[C@@H]1CCC/C=C/C=C/[C@H](O)C[C@@H](O)C/C=C\\C=C\\[C@@H](O)C/C=C/C=C\\C(=O)O1", "note": "[MACROLACTIN A]", "values": [
      {"measurement": "diameter of the inhibition zone (DIZ)", "setting": "Ralstonia solanacearum", "value": 1.2, "unit": "cm"}
    ]},
    {"smiles": "C[C@@H]1CCC/C=C/C=C/[C@H](O)C[C@@H](O)C/C=C\\C=C\\[C@@H](OC(=O)CCC(=O)O)C/C=C/C=C\\C(=O)O1", "note": "[7-O-SUCCINYL MACROLACTIN A]", "values": [
      {"measurement": "diameter of the inhibition zone (DIZ)", "setting": "Ralstonia solanacearum", "value": 1.3, "unit": "cm"}
    ]},
    {"smiles": "CC(C)CCCCCCCCC1CC(=O)N[C@@H](CC(=O)O)C(=O)N[C@H](Cc2ccc(O)cc2)C(=O)N[C@H](CC(N)=O)C(=O)N2CCC[C@H]2C(=O)N[C@@H](CCC(=O)O)C(=O)N[C@H](CO)C(=O)N[C@@H]([C@@H](C)O)C(=O)N1", "note": "(stereo not given in full) [BACILLOMYCIN D(C14)]", "values": [
      {"measurement": "diameter of the inhibition zone (DIZ)", "setting": "[1]", "value": 0.6, "unit": "cm"}
    ]}
  ]
}
